The source of these data is patent US4626540A, “Substituted 1-amino-4-nitro-acridinones and methods of treating bacterial infections and leukemia with them” (Warner-Lambert Company, priority 1984, dated 1986).

≈ marks a conversion by molar mass, not a printed value. Counter-ions that a name gives are not always drawn. A value given as a limit tells only on which side of the number the result lay.

The test system of experiment [1] is L1210 murine leukemia cell lines. The experiment is described as follows: In vitro antitumor screening (PDC test), L1210 murine leukemia cell growth. The class given is cell-based. Conditions: Mus musculus, 72 h; L1210 cells, 37° C., three days; value is ID50 multiplied by 10^7. The procedure:
Another test protocol is the in vitro antitumor screening (PDC test) of compounds of the present invention on L1210 murine leukemia cell lines. L1210 cells, a murine leukemia cell line, were grown in RPMI 1640 supplemented with 5% fetal bovine serum and gentamicin (50 μg/ml).
Drug dilutions were prepared in the apropriate solvent and 20 μl of each dilution were added to 24-well Linbro tissue culture plats, followed by the addition of M 2.0 ml of cell suspension containing 3×10^4 cells per ml. Solvent and medium controls were included in each test. After incubation at 37° C. for three days in 5% CO2, the contents of each well were removed and the cells counted in a ZBI Coulter counter. Percent growth was calculated relative to the controls and the levels of drug activity wre expressed as ID50 in moles per liter using probit paper.

Experiment [2] relates to HCT-8 cells. The experiment is described as follows: In vitro proliferating human colon adenocarcinoma (HCA) cell screen, HCT-8 cells.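 Also: ID50 is the molar concentration giving 50% growth inhibition.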 Conditions: 60-65 hours at 37° C., value is ID50 multiplied by 10^7. In kind it is cell-based. The procedure:
One test protocol is the in vitro proliferating human colon adenocarcinoma (HCA) cell screen. In this test, HCT-8 cells (HCA cell line received from Yale University) are trypsinized using trypsin-EDTA. A single cell suspension is achieved by passing the cells through a 26-gauge needle with a 20-cc syringe. A cell suspension is prepared using RPMI 1640+10% FCS+50 μg/ml gentamicin sulfate with a cell concentration of approximately 5,000 cells/ml. The cell suspension is dispensed in Linbro 24-well plates; 1 ml/well. The plates are incubated for approximately 48 hours at 37° C. in a 5% CO2 atmosphere. At this time test compounds are added in the appropriate concentration. Ten μl of the appropriate dilution is added to each well for a titration test. The plates are reincubated an additional 60-65 hours at 37° C. in a 5% CO2 atmosphere. The cells are lysed using a mix of cationic surfactant, glacial acetic acid and sodium chloride. Two ml of the lysed cell suspension from each well is added to 8 ml of diluent. The number of nuclei is determined using a Coulter counter (ZBI model), and a percent growth for each drug concentration is calculated.

In experiment [3] the test system is lymphocytic leukemia P388. The experiment in a line: In vivo lymphocytic leukemia P388 test. The arrangement: species or system CD2 F1 mice. As to conditions: Mus musculus, P388, ip, intraperitoneal, once daily for five days, survival time treated/control, read-out: P388 in vivo T/C × 100. The procedure:
Another test protocol is the in vivo lymphocytic leukemia P388 test. the animals used are either male or female CD2 F1 mice, six or seven animals per test group. The tumor transplant is by intraperitoneal injection of dilute ascitic fluid containing cells of lymphocytic leukemia P388. The test compounds are administered intraperitoneally once daily for five consecutive days at various doses following tumor inoculation. The animals are weighed and survivors are recorded on a regular basis for 30 days. A compound is designated "toxic" if, at a given dose, all animals die prior to four days after the first injection of drug. A ratio of survival time for treated (T)/control (C) animals is calculated. A criterion for efficacy is a ratio T/C times 100 greater than or equal to 125. See Cancer Chemotherapy Reports, Part 3, 3, 1 (1972) for a comprehensive discussion of the protocol.

Experiment [4] relates to Escherichia coli. The experiment in a line: In vitro antibacterial (ABMF) microdilution test, Escherichia coli. Conditions: Mueller-Hinton broth, 37° C., 16-24 hours, read-out: ABMF minimal inhibitory conc, E. coli. The class given is cell-based. An excerpt: (§1) Still another test protocol is the in vitro antibacterial (ABMF) test which is a recognized standard microdilution susceptibility procedure in Mueller-Hinton broth against Gram-positive and Gram-negative bacterial test organisms. The procedure is a modification of a state-of-the-art procedure reported in Manual of Clinical Microbiology, Lennette, E. H., ed., by Barry, A. L. and C. Thornsberry at pages 463-474 and by Gavan, T. L. and A. L. Barry at pages 459-462, American Society for Microbiology, Washington, 1980.
(§2) In the test, a given bacterial culture is used to inoculate individual test wells of microdilution trays containing growth medium and test compound, the latter in a microdilution series: 1000, 333, 111, 37, 12, 4, 1.4, and 0.46 micrograms per milliliter. […] For convenience, values are reported for Escherichia coli, Corynebacterium Sp. ATCC 21698, Branhamella catarrhalis, Streptococcus pneumoniae, and Bacillus cereus.
(In general: In broth dilution the organism is exposed to a series of concentrations in liquid medium.)

Experiment [5] has as its system Corynebacterium Sp. ATCC 21698. The experiment is described as follows: In vitro antibacterial (ABMF) microdilution test, Corynebacterium Sp. In kind it is cell-based. Conditions: ATCC21698, Mueller-Hinton broth, 37° C., 16-24 hours, read-out: ABMF minimal inhibitory conc, Coryn. Species.
From the text: as §1, §2

Experiment [6] deals with Branhamella catarrhalis. The experiment is described as follows: In vitro antibacterial (ABMF) microdilution test, Branhamella catarrhalis. In kind it is cell-based. Conditions: Moraxella catarrhalis; Mueller-Hinton broth, 37° C., 16-24 hours; read-out: ABMF minimal inhibitory conc, B. cat.
From the text: as §1, §2

Experiment [7] deals with Streptococcus pneumoniae. The experiment in a line: In vitro antibacterial (ABMF) microdilution test, Streptococcus pneumoniae. In kind it is cell-based. As to conditions: Mueller-Hinton broth, 37° C., 16-24 hours, read-out: ABMF minimal inhibitory conc, S. pneu.
From the text: as §1, §2

Experiment [8] has as its system Bacillus cereus. The experiment in a line: In vitro antibacterial (ABMF) microdilution test, Bacillus cereus. The class given is cell-based. As to conditions: Mueller-Hinton broth, 37° C., 16-24 hours, read-out: ABMF minimal inhibitory conc, B. cer.
From the text: as §1, §2

A word on the IC50: it is the concentration that gives 50% inhibition.

`COc1ccc2[nH]c3c([N+](=O)[O-])ccc(NCCCN(C)C)c3c(=O)c2c1` [Example 22, 1-[[3-(Dimethylaminopropyl)amino]-7-methoxy-4-nitro-9(10H)-acridinone, methanesulfonate (1:1), hemihydrate]: the IC50 stood at 1200 nM in experiment [1] and 260 nM in experiment [2]. Besides, the response vs control in vivo at 6.25 mg/kg in experiment [3] amounted to 138%. Moreover, the response vs control in vivo at 12.5 mg/kg in experiment [3] stood at 156%. The response vs control in vivo at 25 mg/kg in experiment [3] turned out to be 178%. Further, in experiment [3], the response vs control in vivo at 50 mg/kg came out at 225%. Further, the response vs control in vivo at 100 mg/kg in experiment [3] was 205%. Further, the MIC is 1.4 µg/mL in experiment [4]; below 0.46 µg/mL in experiment [5]; below 0.46 µg/mL in experiment [6]; below 0.46 µg/mL in experiment [7]; 4.1 µg/mL in experiment [8].
`CCOc1ccc2[nH]c3c([N+](=O)[O-])ccc(NCCN(C)C)c3c(=O)c2c1.CS(=O)(=O)O` [Example 10, 1-[[2-(Dimethylamino)ethyl]amino]-7-ethoxy-4-nitro-9(10H)-acridinone, methanesulfonate (1:1)]: the IC50 in experiment [1] came to 810 nM; in experiment [2], 360 nM. Moreover, the response vs control in vivo at 25 mg/kg in experiment [3] is 128%. Besides, the response vs control in vivo at 50 mg/kg in experiment [3] is 162%. Besides, in experiment [3], the response vs control in vivo at 100 mg/kg is 193%. Moreover, the response vs control in vivo at 200 mg/kg in experiment [3] was found to be 260%. Further, the MIC in experiment [4], in experiment [5], in experiment [6], in experiment [7] and in experiment [8] was above 1000 µg/mL throughout.
On to `COc1ccc2c(c1)c(=O)c1c(NCCN(C)C)ccc([N+](=O)[O-])c1n2C` [Example 33], for which the results for the 50% inhibitory concentration (IC50) in experiment [1] and in experiment [2] were 1800 nM and 2270 nM, respectively. Also, in experiment [3], the response vs control in vivo at 100 mg/kg amounted to 137%. For the same molecule, the response vs control in vivo at 200 mg/kg in experiment [3] turned out to be 144%.
For `CN(C)CCCNc1ccc([N+](=O)[O-])c2[nH]c3ccc(O)cc3c(=O)c12` [Example 21], the IC50 in experiment [1] worked out at 19 nM; in experiment [2] it was 2.8 nM. In experiment [3] (1.56 mg/kg), the response vs control in vivo at 1.56 mg/kg was determined as 162%. For the same molecule, the response vs control in vivo at 3.12 mg/kg in experiment [3] (3.12 mg/kg) turned out to be 187%. The response vs control in vivo at 6.25 mg/kg in experiment [3] was 234%. The MIC is below 0.46 µg/mL in experiment [4]; 0.46 µg/mL (≈ 1.29 µM) in experiment [5]; below 0.46 µg/mL in experiment [6]; 0.46 µg/mL (≈ 1.29 µM) in experiment [7]; below 0.46 µg/mL in experiment [8].
For `CCOc1ccc2[nH]c3c([N+](=O)[O-])ccc(NCCCN(C)C)c3c(=O)c2c1.CS(=O)(=O)O` [Example 23, 1-[[(Dimethylamino)propyl]amino]-7-ethoxy-4-nitro-9(10H)acridinone, methanesulfonate], the 50% inhibitory concentration (IC50) in experiment [1] was 320 nM; in experiment [2], 200 nM. Further, the response vs control in vivo at 12.5 mg/kg in experiment [3] is 135%. Moreover, the response vs control in vivo at 25 mg/kg in experiment [3] was found to be 157%. In addition, in experiment [3], the response vs control in vivo at 50 mg/kg amounted to 210%. For the same molecule, the MIC in experiment [4] is below 0.46 µg/mL; in experiment [5], below 0.46 µg/mL; in experiment [6], below 0.46 µg/mL; in experiment [7] it was 1.4 µg/mL; in experiment [8], 12.3 µg/mL.
As to `CCN(CC)CCCNc1ccc([N+](=O)[O-])c2[nH]c3ccc(OC)cc3c(=O)c12` [Example 26, 1-[[3-(Diethylamino)propyl]amino]-7-methoxy-4-nitro-9(10H)-acridinone, methanesulfonate (salt) (1:1)], the IC50 in experiment [1] stood at 78 nM; in experiment [2], 270 nM. Also, the response vs control in vivo at 12.5 mg/kg in experiment [3] is 127%. In addition, the response vs control in vivo at 25 mg/kg in experiment [3] came out at 142%. Further, in experiment [3], the response vs control in vivo at 50 mg/kg came to 161%. In addition, in experiment [3], the response vs control in vivo at 100 mg/kg came out at 198%. The MIC in experiment [4] is 12.3 µg/mL; in experiment [5], 0.46 µg/mL; in experiment [6] it was below 0.46 µg/mL; in experiment [7], 4.1 µg/mL; in experiment [8], 12.3 µg/mL.
`CCOc1ccc2[nH]c3c([N+](=O)[O-])ccc(NCCNCCO)c3c(=O)c2c1.CS(=O)(=O)O` [Example 17, 7-Ethoxy-1-[[2-[(2-hydroxyethyl)amino]ethyl]amino]-4-nitro-9(10H)-acridinone, methanesulfonate]: the figures for the IC50 in experiment [1] and in experiment [2] were 180 nM and 120 nM, respectively. In experiment [3], the response vs control in vivo at 25 mg/kg was determined as 124%. Moreover, in experiment [3], the response vs control in vivo at 50 mg/kg was found to be 138%. The MIC was below 0.46 µg/mL in experiment [4]; below 0.46 µg/mL in experiment [5]; 1.4 µg/mL in experiment [6]; 1.4 µg/mL in experiment [7]; 4.1 µg/mL in experiment [8].
In the case of `CCOc1ccc2[nH]c3c([N+](=O)[O-])ccc(NCCN(CC)CC)c3c(=O)c2c1.CS(=O)(=O)O` [Example 4, 1-[[2-(Diethylamino)ethyl]amino]-7-ethoxy-4-nitro-9(10H)-acridinone, methanesulfonate (1:1)], the results for the half-inhibitory concentration (IC50) in experiment [1] and in experiment [2] were 680 nM and 400 nM, respectively. Also, the response vs control in vivo at 12.5 mg/kg in experiment [3] worked out at 129%. Also, the response vs control in vivo at 25 mg/kg in experiment [3] stood at 149%. The response vs control in vivo at 50 mg/kg in experiment [3] amounted to 211%. In experiment [3], the response vs control in vivo at 100 mg/kg turned out to be 273%. In addition, the MIC was above 1000 µg/mL in experiment [4]; 4.1 µg/mL in experiment [5]; 37 µg/mL in experiment [6]; above 1000 µg/mL in experiment [7]; above 1000 µg/mL in experiment [8].
Turning to `CCCOc1ccc2[nH]c3c([N+](=O)[O-])ccc(NCCN(CC)CC)c3c(=O)c2c1.CS(=O)(=O)O` [Example 5, 1-[[2-(Diethylamino)ethyl]amino]-4-nitro-7-propoxy-9(10H)-acridinone, methanesulfonate], half-maximal inhibition in experiment [2] (IC50) required 1950 nM. In addition, in experiment [3], the response vs control in vivo at 12.5 mg/kg was determined as 122%, the response vs control in vivo at 25 mg/kg stood at 136%, the response vs control in vivo at 50 mg/kg worked out at 146% and the response vs control in vivo at 100 mg/kg amounted to 164%. For the same molecule, the response vs control in vivo at 200 mg/kg in experiment [3] was found to be 186%. The MIC in experiment [4] is above 1000 µg/mL. Moreover, the MIC in experiment [5] turned out to be 0.46 µg/mL. Also, the MIC in experiment [6] was above 1000 µg/mL. For the same molecule, in experiment [7], the MIC came to 1000 µg/mL. Moreover, the MIC in experiment [8] was above 1000 µg/mL.
